Assay results reported in patent publication US8562986B2, “Engineered anti-alpha V-integrin hybrid antibodies” (Merck Patent GmbH, priority 2007, dated 2013).
Entries after “also recorded” stand apart in the source; their conditions may differ. Where two headings read alike, the source gives them in different places.

What was measured:
HUVEC = test: cells; conditions: for additive effect with Cilengitide: chemotherapeutic combined with Cilengitide; for additive effect with DI-17E6: chemotherapeutic combined with DI-17E6; for additive effect with Mab 17E6: chemotherapeutic combined with Mab 17E6
Method: The experimental design gives answer to the question whether blockade of the one lowered the IC50 of the other for blockade endothelial cell growth in the presence of tumor growth factors VEGFA and FGF2.
Plates were coated with 100 μl VN at 1 μg/ml in PBS per 96-well at 4° C. overnight. […] When added in combination the two test substances were mixed at the starting concentrations and the mixture was serially diluted as for the single agents alone. In some assays the chemotherapeutics were serially diluted in the presence of a constant amount of the alpha V blockers at the IC50 or IC70 concentrations. Plates were incubated for 72 hours, then relative cell number was determined by the addition of 20 ul/well Alamar Blue (Resazurin).
Points were run in duplicate or in triplicate. Reagent blanks, containing media plus Alamar Blue without cells, were run on each plate.
Tests were routinely run using HUVEC in media containing 10 ng/ml FGF-2 or HDMVEC in media containing 10 ng/ml VEGF.

αvβ3 integrin = αvβ3 integrin (Homo sapiens, UniProt P06756); test: Integrin binding ELISA
Method: Assay to determine binding of DI17E6 antibody to alpha V integrin receptor subunit The ability of the DI17E6 antibody to bind alpha V integrin was assayed using an ELISA. Briefly, various amounts of antibody were added to wells containing alpha V integrin, wells were then washed, and the bound antibody was assayed according to standard procedures.

[1] = test system: human endothelial cell adhesion to vitronectin; test: Endothelial cell adhesion to vitronectin; type: cell-based; conditions: read-out: EC50, inhibition of human endothelial cell adhesion to vitronectin
[2] = test system: platelet thrombus formation; test: Thrombus formation in perfusion chamber; type: cell-based; conditions: dose-dependent
Method: To exclude possible side effects of the antibody on platelets, EMD 525797 was evaluated for inhibition of platelet aggregation in vitro with human platelet rich plasma/collagen. […] Aggregation and activation studies were carried out using Platelet Rich Plasma (PRP). Thrombus formation by perfusion chamber with exposed subendothelial matrix.

[3] = Serum levels and anti-antibody response in monkey Matrigel plug experiment; type: in vivo; conditions: monkeys, single i.v. injection, up to end of study
Method: Serums were collected at three different points (from the legs): immediately before antibody injection, immediately (1-2 minutes) after antibody injection, and at the end of the study before animal sacrifice. […] To detect given serum dilution) were found at the two different time points in serum: immediately after antibody administration and at the end of the study.

[4] = Single dose immunogenicity study in monkeys (sandwich ELISA); type: in vivo, monkey; conditions: 1 mg/Kg single i.v., 1, 3 and 6 weeks
Method: In another study the pharmacy kinetic parameters of a single dose of DI-17E6 in monkeys was assessed and in addition, this study was planned to investigate the immunogenicity of DI-17E6. […] Length of the assay was 6 weeks. Serums were drawn pre-dose, and 1, 3, and 6 weeks after administration. Levels of monkey antibodies against DI-17E6 were analyzed. In this study, immunogenicity was directly addressed using a specific sandwich ELISA method designated for this type of studies (method not validated yet).

[5] = First clinical study in healthy volunteers, anti-drug antibodies; type: in vivo, human
Text: This was meanwhile confirmed by a first clinical study carried out in the US in 2006/2007. […] In contrast to that, mouse 17E6 develops in animal models a strong immune response.

[6] = T-cell epitope mapping score; parameters: species or system human; conditions: T-cell epitope scoring
M21-L tumors = test: SCID mouse-human skin chimera model; type: in vivo; conditions: 1 mg/dose i.p. 3 times per week, from one day after inoculation
Text: Human skin containing human M21 melanoma cells were grafted by implantation/transplantation onto SCID or nude mice. Experimental tumors grew in this tissue after intradermal inoculation of tumor cells and the initial angiogenic vasculature was derived from vessels in the human skin. In the next experiment, the use of M21-L cells that have no av-integrins means that only those integrins expressed on the endothelial cells within the grafted human skin were targeted.

[7] = test system: bFGF induced angiogenesis; test: Matrigel plug model in monkeys; type: in vivo, Cynomologus monkeys; conditions: 6 days
Method: Matrigel plugs containing bFGF were implanted s.c. into the abdomen of healthy Cynomologus monkeys. The animals were injected once with EMD 525797 i.v. at either 10 mg/Kg or 30 mg/Kg. Evaluation of angiogenesis was carried out 6 days after by quantification of the hemoglobin content in the Matrigel plugs.

CAKI-1 renal carcinoma = CAKI-1 renal carcinoma xenograft, monotherapy; type: in vivo, SCID or nude mice; conditions: i.p. once per week
CAKI-1 xenograft tumors = test: CAKI-1 renal cell carcinoma xenograft, with Erbitux; type: in vivo, mice; conditions: 17.1 mg/kg loading then […] weekly i.p.
Method: The renal cell carcinoma cell line CAKI-1 was grown in RPMI containing 10% FCS (heat-inactivated) plus 2 mM glutamine. 1 mM sodium pyruvate. 100 units/ml penicillin and 100 ug/ml streptomycin. Cells were passaged at confluence by washing once in cation-free PBS followed by a 3 minute incubation in trypsin (0.5 ug/ml)/EDTA (0.2 ug/ml) solution in PBS at 37° C. Cells were recovered in medium, centrifuged and taken up in medium and counted.
The treatment started for all groups at day 0 of experiment (same day of cell injection).

[8] = 4-weeks / repeat-dose toxicology study; type: in vivo, cynomolgus monkey
bacteria = test: Bacterial screening test for mutagenic potential; type: cell-based
ADCC and CDC = type: cell-based
αv-integrins = test: Species specificity (immuno precipitation, western blotting); type: binding, human and monkey
Method: The molecular basis for this unusual profile has been unequivocally established by epitope mapping, sequence comparison, and x-ray co-crystallography. The epitope recognized by DI-17E6 is confirmed as unique to human and monkey by immuno precipitation and western blotting analysis performed with several species.

[9] = test system: VEGF-induced migration of human endothelial cells on vitronectin; conditions: read-out: EC50, block of VEGF-induced migration of human endothelial cells on vitronectin
[10] = test system: human melanoma cell lines m21, SKMEL-23, SKMEI, MeWo, WM-793; conditions: cisplatin, paclitaxel, vinblastin, vincristin, temoyolomide
NP18-b3 pancreatic tumor = test: Orthotopic pancreatic xenograft; type: in vivo, nude mice; conditions: EMD 525797 500 μg per animal or gemcitabine 50 mg/Kg, i.p. 3 times a week; 6 weeks
Method: NP18-b3 pancreatic human cell line, which expresses αvβ3-integrin, was implanted orthotopically into the pancreas of immunosuppressed mice. The animals were randomized to and one week later treatment with drugs and vehicle started.
Tumors were removed and cut into pieces of 10 mg each. These pieces were then sutured to the pancreas of healthy animals (one piece per animal). 4-6 weeks later, tumors were removed, cut into pieces again and stitched into new animals. Those new animals were then randomized and one week later treatment with drugs and vehicle was started. EMD 525797 was dosed i.p. at 500 μg per animal three times a week. Gemcitabine was administered as a suboptimal dose of 50 mg/Kg 3 times a week (suboptimal dose based on previous studies). In a fourth group, EMD 525797 was combined with suboptimal doses of gemcitabine based on previous experiments. Tumor growth measurement (weight of the removed tumors) was made 6 weeks after the tumor grafting.

[11] = HUVEC, 10 ng/ml FGF-2, 72 hours, single agent
[12] = Homo sapiens, HUVEC, 72 h, 10 ng/ml FGF-2, 72 hours, single agent

Sequence of αvβ3 integrin (P06756 31-889 limits assumed): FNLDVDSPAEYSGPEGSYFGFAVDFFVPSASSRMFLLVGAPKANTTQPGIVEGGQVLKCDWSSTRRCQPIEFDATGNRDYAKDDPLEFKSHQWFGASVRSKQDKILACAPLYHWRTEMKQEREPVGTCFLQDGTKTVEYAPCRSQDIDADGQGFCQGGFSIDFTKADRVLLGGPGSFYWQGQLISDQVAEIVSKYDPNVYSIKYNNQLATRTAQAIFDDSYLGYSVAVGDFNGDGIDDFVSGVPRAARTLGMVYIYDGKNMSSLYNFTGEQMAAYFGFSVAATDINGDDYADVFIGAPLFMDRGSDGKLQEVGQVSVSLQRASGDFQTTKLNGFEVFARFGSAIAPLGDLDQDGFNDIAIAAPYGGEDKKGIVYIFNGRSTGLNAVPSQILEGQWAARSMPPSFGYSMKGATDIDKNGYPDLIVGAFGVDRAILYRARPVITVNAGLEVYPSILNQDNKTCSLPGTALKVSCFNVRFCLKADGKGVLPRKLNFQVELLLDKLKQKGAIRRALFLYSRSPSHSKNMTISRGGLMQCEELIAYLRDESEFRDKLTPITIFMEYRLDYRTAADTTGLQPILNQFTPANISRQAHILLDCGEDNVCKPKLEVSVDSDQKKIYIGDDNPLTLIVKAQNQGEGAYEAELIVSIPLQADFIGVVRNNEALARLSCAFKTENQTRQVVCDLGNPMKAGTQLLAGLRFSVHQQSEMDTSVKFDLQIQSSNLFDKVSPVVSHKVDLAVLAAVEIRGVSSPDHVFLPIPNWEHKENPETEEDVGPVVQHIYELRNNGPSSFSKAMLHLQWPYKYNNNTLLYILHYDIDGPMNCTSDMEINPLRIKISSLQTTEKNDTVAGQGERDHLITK
Sequence of αvβ3 integrin (P06756 891-1048 partner limits assumed): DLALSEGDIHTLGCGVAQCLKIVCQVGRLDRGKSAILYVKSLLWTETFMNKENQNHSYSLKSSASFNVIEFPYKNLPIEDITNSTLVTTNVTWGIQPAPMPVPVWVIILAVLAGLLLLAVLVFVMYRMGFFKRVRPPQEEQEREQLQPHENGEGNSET
Sequence of αvβ3 integrin (P05106 27-788 partner): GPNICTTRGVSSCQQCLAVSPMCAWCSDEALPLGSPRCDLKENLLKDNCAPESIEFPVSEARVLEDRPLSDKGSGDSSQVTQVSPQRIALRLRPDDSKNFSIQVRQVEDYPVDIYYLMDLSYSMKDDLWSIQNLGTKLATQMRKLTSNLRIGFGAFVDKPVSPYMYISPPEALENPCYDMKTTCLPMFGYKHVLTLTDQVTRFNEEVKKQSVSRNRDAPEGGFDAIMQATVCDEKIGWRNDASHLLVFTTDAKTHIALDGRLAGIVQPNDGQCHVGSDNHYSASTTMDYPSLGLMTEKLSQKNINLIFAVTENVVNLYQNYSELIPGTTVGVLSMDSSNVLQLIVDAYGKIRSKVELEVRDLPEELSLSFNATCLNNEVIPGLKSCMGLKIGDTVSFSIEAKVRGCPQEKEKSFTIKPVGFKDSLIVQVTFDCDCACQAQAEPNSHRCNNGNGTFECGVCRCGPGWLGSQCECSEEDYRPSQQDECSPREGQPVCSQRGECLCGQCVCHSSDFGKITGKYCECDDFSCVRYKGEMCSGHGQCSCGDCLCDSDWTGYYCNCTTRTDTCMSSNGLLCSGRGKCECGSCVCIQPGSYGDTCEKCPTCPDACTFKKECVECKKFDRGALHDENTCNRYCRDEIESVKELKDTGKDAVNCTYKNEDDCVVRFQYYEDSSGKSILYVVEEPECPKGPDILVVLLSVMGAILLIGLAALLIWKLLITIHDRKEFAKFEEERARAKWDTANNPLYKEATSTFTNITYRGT

Molecule: C[C@]12CC[C@@H]3c4ccc(OC(=O)N(CCCl)CCCl)cc4CC[C@H]3[C@@H]1CC[C@@H]2O [Estramustine]
- IC50 (HUVEC; Homo sapiens, HUVEC, 72 h): 182 µM
- additive effect with Cilengitide (HUVEC): no
- additive effect with DI-17E6 (HUVEC): no
- additive effect with Mab 17E6 (HUVEC): no

Molecule: O=c1[nH]cc(F)c(=O)[nH]1 [5FU]
- IC50 (HUVEC; [11]): 14.5 µM
- additive effect with Cilengitide (HUVEC): yes
- additive effect with DI-17E6 (HUVEC): yes
- additive effect with Mab 17E6 (HUVEC): yes

Molecule: Cn1nnc2c(C(N)=O)ncn2c1=O [Temozolmide]
- IC50 (in words) (HUVEC; [11]): inactive
- additive effect with Cilengitide (HUVEC): no
- additive effect with DI-17E6 (HUVEC): no
- additive effect with Mab 17E6 (HUVEC): no

Molecule: CC[C@@]1(O)C(=O)OCc2c1cc1n(c2=O)Cc2cc3ccccc3nc2-1 [Camptothecin]
- IC50 (HUVEC; [12]): 0.08 µM
- additive effect with Cilengitide (HUVEC): yes
- additive effect with DI-17E6 (HUVEC): yes
- additive effect with Mab 17E6 (HUVEC): yes

Molecule: CC(=O)O[C@H]1C(=O)[C@@]2(C)[C@H]([C@H](OC(=O)c3ccccc3)[C@]3(O)C[C@H](OC(=O)[C@H](O)[C@@H](NC(=O)c4ccccc4)c4ccccc4)C(C)=C1C3(C)C)[C@]1(OC(C)=O)CO[C@@H]1C[C@@H]2O [Taxol, Paclitaxel]
- IC50 (HUVEC; [11]): 0.3 ng/mL
- IC50 (HUVEC; [12]): 0.27 ng/mL
- IC50 (HUVEC; Homo sapiens, HUVEC, read-out: IC50 in combination with 17E6, HUVEC, combination with 17E6): 0.18 ng/mL
- IC50 (HUVEC; Homo sapiens, HUVEC, read-out: IC50 in combination with Cilengitide, HUVEC, combination with Cilengitide): 0.13 ng/mL
- IC50 (HUVEC; Homo sapiens, HUVEC, read-out: IC50 in combination with DI-17E6, HUVEC, combination with DI-17E6): 0.1 ng/mL
- additive effect with Cilengitide (HUVEC): yes
- additive effect with DI-17E6 (HUVEC): yes
- additive effect with Mab 17E6 (HUVEC): yes

Molecule: N[C@@H](Cc1ccc(N(CCCl)CCCl)cc1)C(=O)O [Melphalan]
- IC50 (HUVEC; Homo sapiens, HUVEC, 72 h): 11.4 µM
- additive effect with Cilengitide (HUVEC): yes
- additive effect with DI-17E6 (HUVEC): yes
- additive effect with Mab 17E6 (HUVEC): yes

Molecule: DI-17E6: engineered de-immunized anti-αv integrin antibody: 17E6 CDRs, h425 light chain frameworks, human IgG2 with modified IgG1 hinge, N297Q, F296A
- binding to αvβ3 integrin (in words) (αvβ3 integrin): similar
- binding to αvβ3 integrin (in words) (αvβ3 integrin; listed as DI-17E6-g2h(NtoQ)(C60Y)): retains binding affinity
- EC50 [1]: ~0.01 µM
- IC50 (HUVEC; [11]): 4 ng/mL
- platelet thrombus formation in the perfusion chamber [2]: blocks
- serum levels of antibody [3]: high serum levels at each time-point
- monkey antibodies against the antibody [4]: no monkey antibodies against DI-17E6 could be detected
- anti-drug antibodies in volunteers ([5]; group of 250 mg, 6 volunteers): one volunteer developed anti-drug antibodies
- anti-drug antibodies in volunteers ([5]; higher dose groups (500 mg and more)): no volunteer developed any immune response; also recorded: not detected
- Total score, heavy chain ([6]; heavy chain): 85
- Total score, light chain ([6]; light chain): 92
- growth of M21-L tumors (M21-L tumors): inhibited growth
- new blood vessel formation (hemoglobin content of plugs) ([7]; 10 mg/Kg i.v. once): inactive
- new blood vessel formation (hemoglobin content of plugs) ([7]; 30 mg/Kg i.v. once): highly efficacious
- tumor volume (CAKI-1 renal carcinoma; high dose (500 ug/ml)): complete reduction of tumor volume
- tumor volume/size (CAKI-1 renal carcinoma; low (1 ug/ml) to medium (100 ug/ml serum) doses): can reduce tumor volume/size
- T/C at day 40, end of treatment (CAKI-1 xenograft tumors): 25%
- serum trough values (CAKI-1 xenograft tumors; mice): 100 µg/mL
- tolerability ([8]; 10, 33 and 100 mg/kg once weekly for 4 weeks, intravenous infusion (1 h)): well tolerated
- treatment-related effects in 4-weeks toxicology study ([8]; clinical observations, body weight, ECG, clinical pathology, organ weight, histopathology): did not reveal any treatment-related effects
- safety pharmacology alerts ([8]; repeat-dose-toxicity studies in cynomolgus monkey): No safety pharmacology alerts
- mutagenic potential (bacteria): not mutagenic
- ADCC and CDC (ADCC and CDC): neither antibody dependent cell cytotoxicity (ADCC) nor complement dependent cytotoxicity (CDC)
- species specificity (αv-integrins): human and monkey αv-integrins only
- EC50 [9]: ~0.05 µM
- effect on the chemotherapeutic agent [10]: not more than additive affects

Molecule: COc1cc([C@@H]2c3cc4c(cc3[C@@H](O[C@@H]3O[C@@H]5CO[C@@H](C)O[C@H]5[C@H](O)[C@H]3O)[C@H]3COC(=O)[C@H]23)OCO4)cc(OC)c1O [Etoposide]
- IC50 (HUVEC; [12]): 0.7 µM
- additive effect with Cilengitide (HUVEC): yes
- additive effect with DI-17E6 (HUVEC): yes
- additive effect with Mab 17E6 (HUVEC): yes

Molecule: N.N.[Cl][Pt][Cl] [Cisplatinin]
- IC50 (HUVEC; [11]): 13.2 µM
- additive effect with Cilengitide (HUVEC): yes
- additive effect with DI-17E6 (HUVEC): yes
- additive effect with Mab 17E6 (HUVEC): yes

Molecule: Nc1ccn([C@@H]2O[C@H](CO)[C@@H](O)C2(F)F)c(=O)n1 [Gemcitabine]
- IC50 (HUVEC; [12]): 0.004 µM
- additive effect with Cilengitide (HUVEC): yes
- additive effect with DI-17E6 (HUVEC): yes
- additive effect with Mab 17E6 (HUVEC): yes
- tumor size and weight, monotherapy (NP18-b3 pancreatic tumor): not active

Molecule: CC[C@]1(O)C[C@H]2CN(CCc3c([nH]c4ccccc34)[C@@](C(=O)OC)(c3cc4c(cc3OC)N(C=O)[C@H]3[C@@](O)(C(=O)OC)[C@H](OC(C)=O)[C@]5(CC)C=CCN6CC[C@]43[C@@H]65)C2)C1 [Vincrisitin]
- IC50 (HUVEC; [12]): 0.0007 µM
- additive effect with Cilengitide (HUVEC): yes
- additive effect with DI-17E6 (HUVEC): yes
- additive effect with Mab 17E6 (HUVEC): yes

Molecule: COc1cccc2c1C(=O)c1c(O)c3c(c(O)c1C2=O)C[C@@](O)(C(=O)CO)C[C@@H]3O[C@H]1C[C@H](N)[C@H](O)[C@H](C)O1 [Doxorubicin]
- IC50 (HUVEC; [12]): 0.2 µM
- additive effect with Cilengitide (HUVEC): yes
- additive effect with DI-17E6 (HUVEC): yes
- additive effect with Mab 17E6 (HUVEC): yes
